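48-hour exposure; five concentrations; linearly interpolated endpoints. GI50 is the concentration that inhibits growth by half. TGI is the concentration that stops growth completely.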
Columns and labels:
Assay in all cases: NCI tumour cell line growth inhibition, 48 h
KM12 colon = tested on: KM12 colon
MDA-MB-435 = tested on: MDA-MB-435
NCI-H460 lung = tested on: NCI-H460 lung
HL-60(TB) leukemia = tested on: HL-60(TB) leukemia
MDA-N = tested on: MDA-N
SK-OV-3 ovarian = tested on: SK-OV-3 ovarian
EKVX NSCLC = tested on: EKVX NSCLC
OVCAR-5 ovarian = tested on: OVCAR-5 ovarian
HOP-92 NSCLC = tested on: HOP-92 NSCLC
RXF 393 renal = tested on: RXF 393 renal

Compound	TGI (KM12 colon) [µM]	TGI (MDA-MB-435) [µM]	TGI (NCI-H460 lung) [µM]	TGI (HL-60(TB) leukemia) [µM]	TGI (MDA-N) [µM]	TGI (SK-OV-3 ovarian) [µM]	TGI (EKVX NSCLC) [µM]	TGI (OVCAR-5 ovarian) [µM]	TGI (HOP-92 NSCLC) [µM]	TGI (RXF 393 renal) [µM]	GI50 (MDA-MB-435) [µM]	GI50 (HL-60(TB) leukemia) [µM]	GI50 (MDA-N) [µM]	GI50 (OVCAR-5 ovarian) [µM]
CCOC(=O)CCc1ccc(NC(=O)/C=C/c2ccc([N+](=O)[O-])o2)cc1	4.43	0.845	4.78	0.481	2.95	> 100	> 100	6.4	50.7	2.75				
COC1(OC)C2C=CC1C([C@](C)(N)CO)C2 (some centres not stated)	> 100	> 100	> 100	> 100	> 100	> 100	> 100	> 100	> 100	> 100				
Oc1cccc2ccc(Br)nc12	> 100	> 100	> 100	> 100	> 100	> 100	> 100	> 100	> 100	> 100				
COC(=O)[C@H](C)N(C)C(=O)[C@H](C)N1[C@@H](c2ccccc2)COC1(C)C	> 100	> 100	> 100	> 100	> 100	> 100	> 100	> 100	> 100	> 100				
N#CC(C#N)=Cn1c(=S)[nH]c2ccc([N+](=O)[O-])cc21	> 100	> 100	> 100	> 100	> 100	> 100	> 100	> 100	> 100	> 100				
O=c1c2ccccc2nc(N/N=C/c2ccc(Cl)cc2)n1-c1ccccc1		> 100	> 100	> 100	> 100	> 100	> 100	> 100	> 100	> 100				
CC1=NNC(=O)C1C1C=C(c2c[nH]c3ccccc23)OC1=O (configuration not stated)	> 100	> 100	> 100	> 100	> 100	> 100	> 100	> 100	> 100	> 100				
COC(=O)/C(C#N)=C/c1cc(C(C)(C)C)c(O)c(C(C)(C)C)c1	19.9	18.4	5.75	4.47	13.3	8.04	11.9	8.51	12.4	14.8				
Cc1ccc(CN2CCN(Cc3ccc(C)o3)C(C)C2)o1 (configuration not stated)	> 100	> 100	> 100	> 100	> 100	> 100	> 100	> 100	> 100	> 100				
C1=Cc2cccc3occ(c23)C=C1	> 100	> 100	> 100	48.2	> 100	> 100	> 100	> 100	> 100	88.3				
Cc1ccc(O)c(C2=NNC(c3cccc(Cl)c3)C2)c1 (configuration not stated)	> 100	44.5	> 100	> 100	88.1	> 100	> 100	> 100	81.7	64.6				
O=C(O)CCC(NC(=O)c1ccc(Oc2nc3ccccc3nc2-c2ccccc2)cc1)C(=O)O (configuration not stated)	> 100	> 100	> 100	> 100	> 100	> 100	> 100	> 100	> 100	> 100				
Nn1c(CCCCCCCCc2n[nH]c(=S)n2N)n[nH]c1=S	> 100	> 100	> 100	> 100	> 100	> 100	> 100	> 100	> 100	> 100				
Cc1cnc2[nH]c(-c3ccc(Cl)cc3)cc(=O)c2c1	> 100	1.97	> 100	> 23.3	3.61	> 100	> 100	> 31.6	> 100					
COC(=O)[C@@H]1[C@H]2CC[C@]3(C)[C@@H](OC(C)=O)CC[C@H]3[C@@H]2CC[C@H]1C(C)=O	> 100	> 100	> 100	> 100	> 100	> 100	> 100	> 100	> 100	> 100				
O=C(O)CCC(NC(=O)c1ccc(CNc2nc3cc(C(F)(F)F)ccc3nc2C(=O)O)cc1)C(=O)O (configuration not stated)	> 100	> 100	> 100	> 100	> 100	> 100	> 100	> 100	> 100	> 100				
O=C(CCN1CCCC1)c1ccc(Oc2ccc(F)cc2)cc1	90.9	> 100	> 100	37.8	> 100	> 100	> 100	> 100	41.5	74.4				
c1cc2c3ccsc3c3sccc3c2s1	> 100	> 100	> 100	> 100	> 100	> 100	> 100	> 100	> 100	> 100				
COc1ccc(NC(=O)NNS(=O)(=O)c2ccc(C)cc2)cc1	> 100	> 100	> 100	> 100	> 100	> 100	> 100	> 100	> 100	> 100				
COc1ccc2[nH]c3c(O)c(-c4c(C)cc5c([nH]c6ccc(OC)cc65)c4O)c(C)cc3c2c1	7.74	8	7.52	4.96	8.22		7.8	7.34	8.18	8.82	4.34	0.0321	4.5	3.82
CC[C@]1(Cc2ccc(OC)c(OC)c2)C=[N+]([O-])O[C@H](OCc2ccccc2)[C@@H]1OC(C)=O	58.8	> 100	> 100	36.3	> 100	> 100	67.5	> 100	77.3	55.4				
COC(=O)CNC(=O)CSc1nnc(COc2ccc(Cl)cc2)n1-c1ccccc1	> 100	48.4	> 100	> 100	42.2	> 100	> 100	> 100	> 100	51.1				

Compound	TGI (KM12 colon) [µM]	TGI (MDA-MB-435) [µM]	TGI (NCI-H460 lung) [µM]	TGI (HL-60(TB) leukemia) [µM]	TGI (MDA-N) [µM]	TGI (SK-OV-3 ovarian) [µM]	TGI (EKVX NSCLC) [µM]	TGI (OVCAR-5 ovarian) [µM]	TGI (HOP-92 NSCLC) [µM]	TGI (RXF 393 renal) [µM]	GI50 (MDA-MB-435) [µM]	GI50 (HL-60(TB) leukemia) [µM]	GI50 (MDA-N) [µM]	GI50 (OVCAR-5 ovarian) [µM]
COC1C(=O)N(SC)C1c1ccccc1Cl (configuration not stated)	> 100	53.9	> 100	42.2	> 100	> 100	64.6	32.2	> 100	> 100				
CCOC(=O)c1csc(-c2cn(C)c3c2C(=O)C(OC)=CC3=O)n1	> 71.8	11.1	> 41.6	> 100	> 50.1	> 100	> 100	> 100	> 100	71.8				
Cc1ccc(S(=O)(=O)NNC(=O)Nc2ccc([N+](=O)[O-])cc2)cc1	> 100	> 100	87.6	> 100	> 100		> 100	> 100	> 100	> 100				
COc1cc(C(=O)OC2CC34CCNC35CC(OC5(OC)C2O)c2cc3c(cc24)OCO3)ccc1O (configuration not stated)	> 100	> 100	> 100	> 100	> 100	> 100	> 100	> 100	> 100	> 100				
Nc1ncc2c(n1)-c1ccccc1OC2N1CCOCC1 (configuration not stated)	> 100	> 100	> 100	> 100	> 100	> 100	> 100	> 100	> 100	> 100				
Cn1c(N)c(/C=C/C(=O)Oc2ccccc2)c(=O)n(C)c1=O	> 100	> 100	> 100	> 100	> 100	> 100	> 100	> 100	93	> 100				
Cc1ccc2c(c1)CC1(C2)Cc2ccc(C)cc2C1=O (configuration not stated)	53.6	> 100	55.5	63.4	73.1	> 100	88.7	> 100	66.3	54.4				
COc1cc(-c2ccccc2)cn2c1nc1ccccc12	36.1	43.4	49.4	53.2	37.3	59.7		31.7	32	34.6				
NC(=O)NC(=O)c1cccc(NC(=O)CCl)c1	2.43	5.93	3.92	1.97	1.08	8.88	26.5	9.49	15.2	4.3				
COc1ccc(C2=NN(C(=O)c3ccc(Cl)cc3)C(O)(c3cc(F)c(Cl)cc3Cl)C2)cc1 (configuration not stated)	> 100	> 100	> 100	> 100	> 100	> 100	> 100	> 100	> 100	> 100				
c1ccc(COC[C@H]2C3OCC([C@H](OCc4ccccc4)[C@H]3OCc3ccccc3)N2Cc2ccccc2)cc1 (some centres not stated)	> 100	> 100	> 100	> 53.4	> 100	> 100	> 100	> 100	> 100	> 100				
COC(=O)C1=COC2OC3CC1C2C(C)O3 (configuration not stated)	> 100	> 100	> 100	> 100	> 100	> 100	> 100	> 100	> 100	> 100				
CC(=O)OC(C)c1cc2c(s1)C(=O)c1ccsc1C2=O (configuration not stated)	0.306	0.0301		0.0364	0.0544	3.7	2.74	0.994	1.74	0.496				
COc1cccc(CCn2c(N)c(C#N)c3ccc([N+](=O)[O-])cc3c2=O)c1	> 31.6	> 100	> 46.4	> 46.4	> 100	> 31.6	> 31.6	> 31.6	> 31.6					
CCN1C/C(=C\c2ccc(Cl)cc2)c2[nH]c(=O)c(C#N)c(-c3ccc(Cl)cc3)c2C1	> 100	> 100	> 100	> 100	> 100	> 100	> 100	> 100	> 100	> 100				
Cc1nn(C(=O)c2ccc(Cl)cc2)c2c1C(c1ccc(Cl)cc1)SC(N)=N2 (configuration not stated)	> 10	> 10	> 10	> 10	> 10	> 10	> 10	> 10	> 10	> 10				
O=c1[nH]c(=O)n(C2CC(O)C(COP(=O)(OCC(Cl)(Cl)Cl)OCC(Cl)(Cl)Cl)O2)cc1F (configuration not stated)	> 100	> 100	> 100	51	> 100	> 100	> 100	> 100	> 100					
N[C@H]1CCN(c2c(F)cc3c(=O)c(C(=O)O)cn4c3c2Oc2c-4ccc3c2ccc2ccccc23)C1	> 62.7	> 39.6	2.42	> 85.6	> 53.6		> 24.7	> 100	> 49.6	16.6				
CCOC(=O)C1=NNC(C(=O)c2ccccc2)C1c1ccccc1 (configuration not stated)	19.8	3.89		2.86	3.98	33.1	36.6	17.4	4.46	3.78				
COC(=O)c1cc2c(cc1C(=O)OC)[C@@]1(C)CCCC(C)(C)C1CC2 (some centres not stated)	30.6	> 100	43.8	31.9	78.8		30.1	38.1	26.2	23.2				
O=C1NC(N2CCCCC2)=N/C1=C\c1ccco1	> 100	> 100		> 100	> 100	> 100	> 100	> 100	> 100	> 100				
